In patent US20260216347A1, “Substituted Imidazo-Based Compounds as Ligand Directed Degraders of IRAK3” (Celgene Corporation, priority 2022, published 2026):

Molecular target: T1, IRAK3-ePL (Homo sapiens, UniProt Q9Y616)
T1 construct: expressed in transfected cells; host or cells: 293T CRBN OE/GSPT1 G575N KI cells, lentiviral transduction, puromycin selected
Test: IRAK3-ePL overexpressing degradation assay (InCELL Hunter luminescence, dose response)
Assay type: cell-based
Details: for IRAK3 ePL degradation Ymin: lowest percentage of target protein remaining following compound treatment; for DC50: read-out: IRAK3 ePL degradation EC50
How it was run: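 Lenti-X 293T CRBN/GSPT1 G575N cells stably expressing IRAK3-ePL (5,000/well) treated overnight at 37° C with 10-point 3-fold dilutions from 10 μM, 0.2% DMSO. InCELL Hunter luminescence, background subtracted using Ataluren wells and normalized to DMSO; EC50 from four-parameter logistic fit.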

## Cc1cc(-c2cnc(Nc3cnn([C@H]4CC[C@@H](CN5CCN(c6ccc(C7CCC(=O)NC7=O)cc6)CC5)CC4)c3)c3nccn23)c(F)cc1F (relative stereo) [Compound 71, 3-(4-(4-(((cis)-4-(4-((5-(2,4-difluoro-5-methylphenyl)imidazo[1,2-a]pyrazin-8-yl)amino)-1H-pyrazol-1-yl)cyclohexyl)methyl)piperazin-1-yl)phenyl) piperidine-2,6-dione]
  IRAK3 ePL degradation Ymin: 29%
  DC50: 1.7 nM

## Cc1cccc(-c2cnc(Nc3cnn(C4CCN(CC(=O)N5CCN(c6ccc7c(c6)C(=O)N(C6CCC(=O)NC6=O)C7=O)CC5)CC4)c3)c3nccn23)c1 (stereo not shown) [Compound 1, 2-(2,6-dioxopiperidin-3-yl)-5-(4-(2-(4-(4-((5-(m-tolyl)imidazo[1,2-a]pyrazin-8-yl)amino)-1H-pyrazol-1-yl)piperidin-1-yl)acetyl)piperazin-1-yl)isoindoline-1,3-dione]
  IRAK3 ePL degradation Ymin: 31%
  DC50: 39 nM

## Cc1cccc(-c2cnc(Nc3cnn(C4CCN(CCN5CCN(c6ccc7c(c6)C(=O)N(C6CCC(=O)NC6=O)C7=O)CC5)CC4)c3)c3nccn23)c1 (stereo not shown) [Compound 2, 2-(2,6-dioxopiperidin-3-yl)-5-(4-(2-(4-(4-((5-(m-tolyl)imidazo[1,2-a]pyrazin-8-yl)amino)-1H-pyrazol-1-yl)piperidin-1-yl)ethyl)piperazin-1-yl)isoindoline-1,3-dione]
  IRAK3 ePL degradation Ymin: 15%
  DC50: 3 nM

## Cc1cccc(-c2cnc(Nc3cnn(C4CCN(CCCCN5CCN(c6ccc(C7CCC(=O)NC7=O)cc6)CC5)CC4)c3)c3nccn23)c1 (stereo not shown) [Compound 3, 3-(4-(4-(4-(4-(4-((5-(m-tolyl)imidazo[1,2-a]pyrazin-8-yl)amino)-1H-pyrazol-1-yl)piperidin-1-yl)butyl)piperazin-1-yl)phenyl) piperidine-2,6-dione]
  IRAK3 ePL degradation Ymin: 15%
  DC50: 3 nM

## Cc1cccc(-c2cnc(Nc3cnn(C4CCN(CCCN5CCN(c6ccc(C7CCC(=O)NC7=O)cc6)CC5)CC4)c3)c3nccn23)c1 (stereo not shown) [Compound 4, 3-(4-(4-(3-(4-(4-((5-(m-tolyl)imidazo[1,2-a]pyrazin-8-yl)amino)-1H-pyrazol-1-yl)piperidin-1-yl)propyl)piperazin-1-yl)phenyl) piperidine-2,6-dione]
  IRAK3 ePL degradation Ymin: 13%
  DC50: 4 nM

## Cc1cc(-c2cnc(Nc3cnn(C4CCN(CC(=O)N5CCN(c6ccc7c(c6)C(=O)N(C6CCC(=O)NC6=O)C7=O)CC5)CC4)c3)c3nccn23)c(F)cc1F (stereo not shown) [Compound 6, 5-(4-(2-(4-(4-((5-(2,4-difluoro-5-methylphenyl)imidazo[1,2-a]pyrazin-8-yl)amino)-1H-pyrazol-1-yl)piperidin-1-yl)acetyl)piperazin-1-yl)-2-(2,6-dioxopiperidin-3-yl)isoindoline-1,3-dione]
  IRAK3 ePL degradation Ymin: 17%
  DC50: 22 nM

## Cc1cc(-c2cnc(Nc3cnn(C4CCN(CCN5CCN(c6ccc(C7CCC(=O)NC7=O)cc6)C[C@@H]5C)CC4)c3)c3nccn23)c(F)cc1F (stereo partly drawn) [Compound 7, 3-(4-((S)-4-(2-(4-(4-((5-(2,4-difluoro-5-methylphenyl)imdazo [1,2-a]pyrazin-8-yl)amino)-1H-pyrazol-1-yl)piperidin-1-yl)ethyl)-3-methylpiperazin-1-yl)phenyl) piperidine-2,6-dione]
  IRAK3 ePL degradation Ymin: 14%
  DC50: 0.6 nM

## Cc1cc(-c2cnc(Nc3cnn(C4CCN(CCN5CCN(c6ccc(C7CCC(=O)NC7=O)cc6)CC5)CC4)c3)c3nccn23)c(F)cc1F (stereo not shown) [Compound 8, 3-(4-(4-(2-(4-(4-((5-(2,4-difluoro-5-methylphenyl)imidazo[1,2-a]pyrazin-8-yl)amino)-1H-pyrazol-1-yl)piperidin-1-yl)ethyl)piperazin-1-yl)phenyl)piperidine-2,6-dione]
  IRAK3 ePL degradation Ymin: 18%
  DC50: 0.5 nM

## Cc1cc(-c2cnc(Nc3cnn(C4CCN(CCN5CCN(c6ccc(C7CCC(=O)NC7=O)cc6)C[C@H]5C)CC4)c3)c3nccn23)c(F)cc1F (stereo partly drawn) [Compound 9, 3-(4-((R)-4-(2-(4-(4-((5-(2,4-difluoro-5-methylphenyl)imdazo [1,2-a]pyrazin-8-yl)amino)-1H-pyrazol-1-yl)piperidin-1-yl)ethyl)-3-methylpiperazin-1-yl)phenyl) piperidine-2,6-dione]
  IRAK3 ePL degradation Ymin: 14%
  DC50: 0.5 nM

## Cc1cc(-c2cnc(Nc3cnn(C4CCN(CC(=O)N5CCN(c6ccc7c(c6)CN(C6CCC(=O)NC6=O)C7=O)CC5)CC4)c3)c3nccn23)c(F)cc1F (stereo not shown) [Compound 10, 3-(5-(4-(2-(4-(4-((5-(2,4-difluoro-5-methylphenyl)imidazo[1,2-a]pyrazin-8-yl)amino)-1H-pyrazol-1-yl)piperidin-1-yl)acetyl)piperazin-1-yl)-1-oxoisoindolin-2-yl)piperidine-2,6-dione]
  IRAK3 ePL degradation Ymin: 22%
  DC50: 19 nM

## Cc1cc(-c2cnc(Nc3cnn([C@H]4CC[C@H](CCN5CCN(c6ccc(C7CCC(=O)NC7=O)cc6)CC5)CC4)c3)c3nccn23)c(F)cc1F (stereo partly drawn) [Compound 11, 3-(4-(4-(2-((trans)-4-(4-((5-(2,4-difluoro-5-methylphenyl)imidazo[1,2-a]pyrazin-8-yl)amino)-1H-pyrazol-1-yl)cyclohexyl)ethyl)piperazin-1-yl)phenyl)piperidine-2,6-dione]
  IRAK3 ePL degradation Ymin: 22%
  DC50: 4 nM

## Cc1cc(-c2ccc(Nc3cnn(C4CCN(CCN5CCN(c6ccc(C7CCC(=O)NC7=O)cc6)CC5)CC4)c3)c3nccn23)c(F)cc1F (stereo not shown) [Compound 12, 3-(4-(4-(2-(4-(4-((5-(2,4-difluoro-5-methylphenyl)imdazo [1,2-a]pyridin-8-yl)amino)-1H-pyrazol-1-yl)piperidin-1-yl)ethyl)piperazin-1-yl)phenyl) piperidine-2,6-dione]
  IRAK3 ePL degradation Ymin: 14%
  DC50: 3 nM

## Cc1cc(-c2cnc(Nc3cnn(C4CCN(CCN5[C@H](C)CN(c6ccc(C7CCC(=O)NC7=O)cc6)C[C@@H]5C)CC4)c3)c3nccn23)c(F)cc1F (stereo partly drawn) [Compound 13, 3-(4-((3S,5R)-4-(2-(4-(4-((5-(2,4-difluoro-5-methylphenyl)imdazo [1,2-a]pyrazin-8-yl)amino)-1H-pyrazol-1-yl)piperidin-1-yl)ethyl)-3,5-dimethylpiperazin-1-yl)phenyl) piperidine-2,6-dione]
  IRAK3 ePL degradation Ymin: 13%
  DC50: 0.86 nM

## Cc1cc(-c2cnc(Nc3cnn([C@H]4CC[C@@H](CCN5CCN(c6ccc(C7CCC(=O)NC7=O)cc6)CC5)CC4)c3)c3nccn23)c(F)cc1F (stereo partly drawn) [Compound 14, 3-(4-(4-(2-((cis)-4-(4-((5-(2,4-difluoro-5-methylphenyl)imidazo[1,2-a]pyrazin-8-yl)amino)-1H-pyrazol-1-yl)cyclohexyl)ethyl)piperazin-1-yl)phenyl) piperidine-2,6-dione]
  IRAK3 ePL degradation Ymin: 15%
  DC50: 1.1 nM

## Cc1cccc(-c2cnc(Nc3cnn(C4CCN(CC(=O)N5CCN(c6ccc7c(c6)C(=O)N(C6CCC(=O)NC6=O)C7)CC5)CC4)c3)c3nccn23)c1 (stereo not shown) [Compound 16, 3-(1-oxo-6-(4-(2-(4-(4-((5-(m-tolyl)imidazo[1,2-a]pyrazin-8-yl)amino)-1H-pyrazol-1-yl)piperidin-1-yl)acetyl)piperazin-1-yl)isoindolin-2-yl)piperidine-2,6-dione]
  IRAK3 ePL degradation Ymin: 33%
  DC50: 21 nM

## Cc1cc(-c2cnc(Nc3cnn(C4CCN(CC(=O)N5CCN(c6ccc(C7CCC(=O)NC7=O)cc6)CC5)CC4)c3)c3nccn23)c(F)cc1F (stereo not shown) [Compound 17, 3-(4-(4-(2-(4-(4-((5-(2,4-difluoro-5-methylphenyl)imidazo[1,2-a]pyrazin-8-yl)amino)-1H-pyrazol-1-yl)piperidin-1-yl)acetyl)piperazin-1-yl)phenyl)piperidine-2,6-dione]
  IRAK3 ePL degradation Ymin: 14%
  DC50: 0.51 nM

## Cc1cc(-c2cnc(Nc3cnn(C4CCN(CC(=O)N5CCN(c6ccc7c(c6)C(=O)N(C6CCC(=O)NC6=O)C7)CC5)CC4)c3)c3nccn23)c(F)cc1F (stereo not shown) [Compound 18, 3-(6-(4-(2-(4-(4-((5-(2,4-difluoro-5-methylphenyl)imidazo[1,2-a]pyrazin-8-yl)amino)-1H-pyrazol-1-yl)piperidin-1-yl)acetyl)piperazin-1-yl)-1-oxoisoindolin-2-yl)piperidine-2,6-dione]
  IRAK3 ePL degradation Ymin: 22%
  DC50: 9.7 nM

## Cc1cccc(-c2cnc(Nc3cnn(C4CCN(CC(=O)N5CCN(c6ccc7c(c6)CN(C6CCC(=O)NC6=O)C7=O)CC5)CC4)c3)c3nccn23)c1 (stereo not shown) [Compound 19, 3-(1-oxo-5-(4-(2-(4-(4-((5-(m-tolyl)imidazo[1,2-a]pyrazin-8-yl)amino)-1H-pyrazol-1-yl)piperidin-1-yl)acetyl)piperazin-1-yl)isoindolin-2-yl)piperidine-2,6-dione]
  IRAK3 ePL degradation Ymin: 18%
  DC50: 12 nM

## Cc1cc(-c2cnc(Nc3cnn(C4CCN(CCN5CCN(c6cccc(C7CCC(=O)NC7=O)c6)CC5)CC4)c3)c3nccn23)c(F)cc1F (stereo not shown) [Compound 31, 3-(3-(4-(2-(4-(4-((5-(2,4-difluoro-5-methylphenyl)imdazo [1,2-a]pyrazin-8-yl)amino)-1H-pyrazol-1-yl)piperidin-1-yl)ethyl)piperazin-1-yl)phenyl) piperidine-2,6-dione]
  IRAK3 ePL degradation Ymin: 44%
  DC50: 38 nM

## Cc1cc(-c2cnc(Nc3cnn(C4CCN(CCN5CCN(c6ccc(C7CCC(=O)NC7=O)cc6)CC5)CC4)c3)c3nccn23)ccc1F (stereo not shown) [Compound 33, 3-(4-(4-(2-(4-(4-((5-(4-fluoro-3-methylphenyl)imdazo [1,2-a]pyrazin-8-yl)amino)-1H-pyrazol-1-yl)piperidin-1-yl)ethyl)piperazin-1-yl)phenyl) piperidine-2,6-dione]
  IRAK3 ePL degradation Ymin: 24%
  DC50: 7.9 nM
